Reference: patent publication US5424394A, “Synthetic preparation of amylin and amylin analogues” (priority 1993, dated 1995)
Read-outs that look alike come from different tables or passages of the source. Ends that are not written are not given here.

Tested on: isolated rat soleus muscle
Assay: insulin-stimulated incorporation of labelled glucose into glycogen in isolated rat soleus muscle (soleus muscle assay)
Assay type: cell-based
Excerpt: According to the present invention, we have developed methods for the efficient synthesis of amylin and amylin analogs which result in peptides of high purity which are substantially free of deletion peptides and other contaminating peptides and which show reproducibly high biological activity as measured by assays of its ability to cause resistance to insulin in vitro by inhibiting insulin-stimulated incorporation of labelled glucose into glycogen in isolated rat soleus muscle.
The present invention also provides synthetic human amylin produced by solid phase peptide synthesis which has an EC50 of about 2.5 nanomoles/liter±0.3 log units or less according to an assay of insulin-stimulated incorporation of labelled glucose into glycogen in isolated rat soleus muscle. In an especially preferred aspect, such synthetic human amylin is substantially free of deletion and other contaminating peptides. […]

Human Amylin (KCNTATCATQRLANFLVHSSNNFGAILSSTNVGSNTY-NH2; cysteine pairing not given here; UniProt P10997 34-70, looked up) [37-amino acid peptide with internal disulfide bond and C-terminal amide, made by solid phase peptide synthesis]
EC50 (peptide at least about 95% pure after preparative RP-HPLC, read-out: EC50 as measured by soleus muscle assay): < 5 nM
EC50 (±0.3 log units, inhibition of insulin-stimulated glycogen synthesis, read-out: EC50 according to an assay of insulin-stimulated incorporation of labelled glucose into glycogen in isolated rat soleus muscle): ≤ 2.5 nM
